Laboratory results: paper PMC11882969 (Nature Communications, 2025)
Where “and” joins values, the source holds several entries; their conditions need not be identical. Equal values may be shown once. Read-outs that look alike come from different tables or passages of the source.

Assays:
hCB2 [1] = molecular target: T1, hCB2 (Homo sapiens, UniProt P34972); assay: TRUPATH BRET2 GoA dissociation, HEK293T; type: cell-based; set-up: expressed in transfected cells; host or cells: HEK293T cells (ATCC: CRL-3216), transient co-transfection; conditions: Log[drug], replicate columns
T1 sequence (P34972 whole entry): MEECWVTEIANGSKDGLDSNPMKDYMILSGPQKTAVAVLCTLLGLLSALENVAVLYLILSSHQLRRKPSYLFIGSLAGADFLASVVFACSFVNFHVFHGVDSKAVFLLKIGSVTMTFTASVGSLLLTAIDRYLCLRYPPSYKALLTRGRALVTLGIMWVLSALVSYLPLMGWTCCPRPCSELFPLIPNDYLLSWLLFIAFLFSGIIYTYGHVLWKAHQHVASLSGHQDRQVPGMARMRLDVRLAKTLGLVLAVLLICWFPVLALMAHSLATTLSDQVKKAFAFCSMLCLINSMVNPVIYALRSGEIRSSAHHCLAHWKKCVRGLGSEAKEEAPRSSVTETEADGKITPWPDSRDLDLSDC

hCB1 = hCB1 (Homo sapiens, UniProt P21554); assay: Tango β-arrestin-2 recruitment, HTLA cells, CB1R; type: cell-based; set-up: expressed in transfected cells; host or cells: HTLA cells (gift of R. Axel), transient transfection
hCB1, sequence (P21554 whole entry): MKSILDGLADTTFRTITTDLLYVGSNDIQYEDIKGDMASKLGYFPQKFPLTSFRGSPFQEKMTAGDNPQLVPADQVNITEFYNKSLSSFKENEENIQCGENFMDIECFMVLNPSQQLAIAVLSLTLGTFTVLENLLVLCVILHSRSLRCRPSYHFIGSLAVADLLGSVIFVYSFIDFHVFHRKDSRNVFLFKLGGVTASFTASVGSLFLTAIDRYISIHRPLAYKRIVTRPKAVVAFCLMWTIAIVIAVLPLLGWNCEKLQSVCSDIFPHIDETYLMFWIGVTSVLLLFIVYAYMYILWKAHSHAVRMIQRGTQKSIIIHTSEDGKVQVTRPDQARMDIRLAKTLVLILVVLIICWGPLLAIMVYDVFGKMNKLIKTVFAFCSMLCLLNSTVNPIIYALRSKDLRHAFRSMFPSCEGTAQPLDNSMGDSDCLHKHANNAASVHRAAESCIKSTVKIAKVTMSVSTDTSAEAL

hCB2 [2] = molecular target: T1, hCB2; assay: Tango β-arrestin-2 recruitment, HTLA cells, CB2R; type: cell-based; set-up: expressed in transfected cells; host or cells: HEK293 cells stably expressing human CB2R (Laboratory of Ken Mackie); conditions: hCB2
Procedure: The Tango β-arrestin-2 recruitment assays were performed as described[83]. In brief, HTLA cells (a gift from the laboratory of R. Axel) were transiently transfected with human CB1R or CB2R Tango DNA construct overnight in DMEM supplemented with 10 % FBS, 100 µg ml−1 streptomycin and 100 U ml−1 penicillin. The transfected cells were then plated into poly-L-lysine-coated 384-well white clear-bottom cell culture plates in DMEM containing 1% dialysed FBS at a density of 10,000–15,000 cells per well. After incubation for 6 h, the plates were added with drug solutions prepared in DMEM containing 1% dialysed FBS for overnight incubation. On the day of assay, medium and drug solutions were removed and 20 µl per well of BrightGlo reagent (Promega) was added. The plates were further incubated for 20 min at room temperature and counted using the Wallac TriLux Microbeta counter (PerkinElmer). The results were analysed using GraphPad Prism 9. Each experiment was performed in triplicate and functional IC50 values were determined from the mean of three independent experiments.

mice = conditions: for therapeutic window, analgesia vs catalepsy: Figure 6f
Procedure: For all behavioral tests, the experimenter was always blind to treatment. Animals were first habituated for 30-60 min in Plexiglas cylinders and then tested 30 min after i.p. or i.t. injection of the compounds. The thermal (Hargreaves, hotplate and tail flick) and ambulatory (rotarod) tests were conducted as described[96]. Briefly, hindpaw thermal sensitivity was measured with a radiant heat source (Hargreaves) or on a hotplate at 52 °C. For the tail flick assay, sensitivity was measured by immersing the tail into a 50 °C water bath. For the ambulatory (rotarod) test, before testing with any compound, mice underwent three trainings on three consecutive days until they reach 300 sec. Each training has three sessions of five min each. Therapeutic window was calculated as the ratio of the minimum dose of side effect phenotype to the minimum dose of analgesic phenotype.

## COC(=O)[C@@H]1[C@@H]2CCC[C@@H]2CN1C(=O)c1cc(C)n(-c2cccc(Cl)c2)n1 (racemic) [‘10010]
hCB2 [1]; M = -5
  functional response, concentration-response point (FigS7e, normalized): 13.7314 and 19.7654 and 16.2539 and 16.3582 and 15.5266 and 14.7181 and 16.9744 and 17.1956 and 17.3437 and 20.7447 and 17.5139 and 16.5546
hCB2 [1]; M = -5.52
  functional response, concentration-response point (FigS7e, normalized): 20.9042 and 19.2165 and 18.0732 and 18.0369 and 19.6455 and 19.8563 and 17.8521 and 14.5073 and 16.3411 and 19.903 and 17.2602 and 16.9755
hCB2 [1]; M = -6
  functional response, concentration-response point (FigS7e, normalized): 10.7507 and 14.9427 and 13.7359 and 16.0951 and 12.4583 and 11.3422 and 12.1059 and 9.687 and 11.8107 and 11.4703 and 9.703 and 11.3929
hCB2 [1]; M = -6.52
  functional response, concentration-response point (FigS7e, normalized): 4.563 and 6.7947 and 8.079 and 4.985 and 4.497 and 4.0725 and 5.772 and 5.524 and 4.879 and 5.1763 and 4.984 and 5.043
hCB2 [1]; M = -7
  functional response, concentration-response point (FigS7e, normalized): 0.9969 and 1.487 and 2.14 and 1.042 and 1.585 and 1.996 and 1.046 and 1.153 and 1.5 and 1.42 and 1.036 and 1.049
hCB2 [1]; M = -7.52
  functional response, concentration-response point (FigS7e, normalized): 0.4797 and -0.06465 and 1.02 and 1.242 and 0.9491 and 0.7245 and 0.6969 and 0.2961 and 0.374 and 0.3276 and 0.4451 and 0.1667
hCB2 [1]; M = -8
  functional response, concentration-response point (FigS7e, normalized): 0.02154 and 0.144 and -0.228 and -0.5682 and 0.189 and -0.07359 and -0.0114 and 0.652 and 0.7051 and 0.1667 and -0.0685 and 0.08312
hCB2 [1]; M = -8.52
  functional response, concentration-response point (FigS7e, normalized): -0.1696 and -0.1994 and 0.2365 and -0.2192 and 0.07356 and 0.6319 and 1.0091 and 0.1075 and 0.1334 and 0.5456 and 0.1807 and -0.04223
hCB2 [1]; M = -12
  functional response, concentration-response point (FigS7e, normalized): -0.3529 and 0.3603 and 0.09782 and -0.1053
hCB1; Log[drug], M = -4.52
  response, replicate values of concentration-response curve (FigS7f): 24.852 and -9.474 and 31.57 and 49.261 and 34.9163 and 58.51 and 43.3772 and 13.5605 and 34.2635 and 143.166 and 149.946 and 121.258
hCB1; Log[drug], M = -5
  response, replicate values of concentration-response curve (FigS7f): -6.393 and 4.812 and 50.5074 and 20.7309 and 18.1964 and 30.378 and 30.3734 and 43.3772 and 17.784 and 37.7997 and 110.741 and 29.9442
hCB1; Log[drug], M = -5, individual replicates
  response at Log[drug], M -5 (FigS4e): 7.472 and 8.685 and 7.884 and 5.743 and 2.852 and 6.706 and 6.083 and 7.677 and 9.73 and 9.693 and 11.3624 and 13.6983
hCB1; Log[drug], M = -5.52
  response, replicate values of concentration-response curve (FigS7f): -20.324 and 14.103 and 31.5067 and 7.169 and 19.8684 and 6.1872 and -9.345 and -6.435 and -28.1989 and 72.0832 and 46.8763 and 64.173
hCB1; Log[drug], M = -5.52, individual replicates
  response at Log[drug], M -5.52 (FigS4e): 17.6293 and 13.3704 and 15.7552 and 17.3388 and 7.111 and 7.22 and 6.777 and 6.548 and 14.8053 and 14.1767 and 12.0847 and 15.6871
hCB1; Log[drug], M = -6
  response, replicate values of concentration-response curve (FigS7f): -1.057 and 19.693 and 21.3155 and 18.7272 and -21.0026 and 10.5662 and 17.0767 and 0.7084 and 10.105 and 46.129 and 8.583 and -11.9397
hCB1; Log[drug], M = -6, individual replicates
  response at Log[drug], M -6 (FigS4e): 17.4137 and 13.2205 and 12.7098 and 18.5288 and 2.8 and 2.042 and 0.7471 and 2.0116 and 5.809 and 8.098 and 10.8652 and 9.299
hCB1; Log[drug], M = -6.52
  response, replicate values of concentration-response curve (FigS7f): 16.7142 and -12.7567 and -9.207 and 42.4801 and 2.591 and -9.299 and -1.706 and 6.518 and 3.588 and 25.7157 and 29.853 and 20.7035
hCB1; Log[drug], M = -6.52, individual replicates
  response at Log[drug], M -6.52 (FigS4e): 5.804 and 6.685 and 5.518 and 6.338 and -2.975 and -1.665 and -2.183 and -3.091 and 1.981 and 0.8276 and 5.1991 and 1.175
hCB1; Log[drug], M = -7
  response, replicate values of concentration-response curve (FigS7f): 11.1876 and 2.403 and 33.2939 and -14.3677 and -5.119 and -14.8322 and -4.192 and -26.8955 and -17.9232 and -30.0748 and 5.375 and 20.4665
hCB1; Log[drug], M = -7, individual replicates
  response at Log[drug], M -7 (FigS4e): 8.629 and 6.746 and 5.86 and 10.4703 and -2.0219 and -2.877 and 1.224 and -2.078 and 2.76 and 0.06777 and 1.494 and 1.231
hCB1; Log[drug], M = -7.52
  response, replicate values of concentration-response curve (FigS7f): -4.594 and -7.623 and -10.5004 and 2.14 and -6.485 and 4.329 and -8.365 and -9.244 and -13.1441 and 57.083 and -23.4769 and -26.8306
hCB1; Log[drug], M = -7.52, individual replicates
  response at Log[drug], M -7.52 (FigS4e): 7.402 and 10.1376 and 9.341 and 5.865 and -1.189 and -1.594 and -1.932 and -1.59 and 2.357 and 3.37 and 0.3773 and 1.259
hCB1; Log[drug], M = -8, individual replicates
  response at Log[drug], M -8 (FigS4e): 5.148 and 6.741 and 11.0794 and 7.462 and -3.208 and -1.519 and -1.219 and -1.073 and 3.632 and 3.698 and 2.085 and 1.362
hCB1; Log[drug], M = -8.52, individual replicates
  response at Log[drug], M -8.52 (FigS4e): 6.619 and 9.146 and 5.084 and 9.668 and -0.1198 and -1.382 and -2.75 and -0.9228 and 3.28 and -0.4583 and 7.234 and 5.093
hCB1; Log[drug], M = -9, individual replicates
  response at Log[drug], M -9 (FigS4e): 7.852 and 7.417 and 8.056 and 9.08 and -2.328 and -1.287 and -1.685 and -1.328 and 7.254 and 4.304 and 5.943 and 1.774
hCB1; Log[drug], M = -9.52
  response, replicate values of concentration-response curve (FigS7f): 6.738 and -6.178 and -20.755 and -11.5014
hCB1; Log[drug], M = -9.52, individual replicates
  response at Log[drug], M -9.52 (FigS4e): 9.847 and 11.0284 and 11.6628 and 8.737 and -1.263 and 0.9084 and -0.5418 and -0.1936 and 4.704 and 2.799 and 4.5399 and 1.57
hCB1; Log[drug], M = -10
  response, replicate values of concentration-response curve (FigS7f): 28.4645 and -14.1129 and -6.736 and 44.2981 and 21.9252 and 39.0432 and 53.2891 and 13.6717 and 41.3867 and -34.1393 and -0.001553 and -21.0711
hCB1; Log[drug], M = -10, individual replicates
  response at Log[drug], M -10 (FigS4e): 10.788 and 9.1102 and 5.959 and 9.12 and -1.758 and -1.431 and -1.611 and -0.8081 and 3.28 and 4.704 and 4.745 and 3.311
hCB1; Log[drug], M = -10.52, individual replicates
  response at Log[drug], M -10.52 (FigS4e): 6.358 and 9.064 and 8.9107 and 9.172 and 1.265 and 0.1792 and -0.6688 and 1.04 and 3.157 and 2.819 and 2.153 and 4.1507
hCB1; Log[drug], M = -11, individual replicates
  response at Log[drug], M -11 (FigS4e): 2.256 and 6.798 and 9.796 and 5.744 and -1.353 and -1.763 and 1.556 and -0.804 and 2.6758 and 2.932 and 3.905 and 1.57
hCB1; Log[drug], M = -11.52, individual replicates
  response at Log[drug], M -11.52 (FigS4e): 2.281 and 3.903 and 3.253 and 1.1509 and 1.314 and 0.9699 and 1.212 and 0.552 and 3.905 and 2.9421 and 2.881 and 4.816
hCB1; Log[drug], M = -12, individual replicates
  response at Log[drug], M -12 (FigS4e): 1.069 and -1.289 and -0.4859 and 0.7059 and -0.1854 and 0.7118 and -1.111 and 0.5848 and 1.078 and -0.868 and 0.4635 and -0.6734
hCB1; hCB1, read-out: Tango ß-arrestin recruitment EC50
  EC50: > 10 µM
hCB2 [2]
  Tango ß-arrestin recruitment Emax: 18% [17 – 19]
  Tango ß-arrestin recruitment pEC50: 6.3 [6.2 – 6.3]
hCB2 [2]; read-out: Tango ß-arrestin recruitment EC50
  EC50: 0.556 µM

## COC(=O)[C@@](C)(NC(=O)c1cc(C)n(-c2cccc(C(F)(F)F)c2)n1)c1cccs1 [‘1350]
mice; Figure 6e, vs rotarod
  therapeutic window, Acetone: 10
  therapeutic window, Hot Plate: 5
  therapeutic window, Tail Flick: 5
mice
  therapeutic window, analgesia vs catalepsy: at least a ten-fold window
mice; Figure 6d, vs open field
  therapeutic window, Acetone: 4
  therapeutic window, Hot Plate: 2
  therapeutic window, Tail Flick: 2
mice; mice
  therapeutic window, analgesia vs hypolocomotion, sedation, catalepsy: 2-10 fold and 2-20 fold

## Cc1cc(C(=O)NC(C)(c2ccco2)c2ccco2)nn1-c1cccc(C(F)(F)F)c1 [‘4936]
mice; Figure 6e, vs rotarod
  therapeutic window, Acetone: 10
  therapeutic window, Hot Plate: 4
mice
  therapeutic window, analgesia vs catalepsy: greater than 5
